# Source: PubChem BioAssay (NCI)
# Where “and” joins values, the source holds several entries; their conditions need not be identical. Equal values may be shown once.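 Interpolation was linear, between the two tested concentrations surrounding the appropriate level; five concentrations were tested over 48 hours in 96-well plates. Here, GI50 denotes the concentration required for 50% inhibition of growth. The concentration for full growth arrest is given as TGI.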
# Key:
# Assay in all cases: growth of human tumour cells (NCI), 48 h
# SN12C renal = tested on: SN12C renal
# SF-295 CNS = tested on: SF-295 CNS
# RXF 393 renal = tested on: RXF 393 renal
# ACHN renal = tested on: ACHN renal
# NCI-H460 lung = tested on: NCI-H460 lung
# TK-10 renal = tested on: TK-10 renal
# UO-31 renal = tested on: UO-31 renal
# HOP-62 NSCLC = tested on: HOP-62 NSCLC
# HL-60(TB) leukemia = tested on: HL-60(TB) leukemia
# NCI/ADR-RES ovarian = tested on: NCI/ADR-RES ovarian
SMILES,GI50 (SN12C renal),TGI (SN12C renal),TGI (SF-295 CNS),TGI (RXF 393 renal),TGI (ACHN renal),TGI (NCI-H460 lung),TGI (TK-10 renal),TGI (UO-31 renal),TGI (HOP-62 NSCLC),TGI (HL-60(TB) leukemia),TGI (NCI/ADR-RES ovarian),GI50 (UO-31 renal),GI50 (NCI-H460 lung),GI50 (HOP-62 NSCLC),GI50 (HL-60(TB) leukemia),GI50 (NCI/ADR-RES ovarian),GI50 (TK-10 renal),GI50 (SF-295 CNS),GI50 (ACHN renal),GI50 (RXF 393 renal)
O=c1cccccc1[O-].O=c1cccccc1[O-].[O]=[U+2]=[O],27.2 µM,63.2 µM,41.5 µM,41.2 µM,48 µM,> 100 µM,57.3 µM,–,–,–,–,–,–,–,–,–,–,–,–,–
O=C(OCN1C(=O)C2C3C=CC(C2C1=O)C1C2C(=O)N(COC(=O)C4CCCN4)C(=O)C2C31)C1CCCN1 (stereo not given),–,> 100 µM,> 100 µM,> 100 µM,> 83.4 µM,> 56.5 µM,> 100 µM,> 100 µM,> 100 µM,43.6 µM,–,–,–,–,–,–,–,–,–,–
Cc1nn(-c2ccccc2)c(C)c1/C=N/N=C1\SCC(=O)N1c1ccccc1,–,> 100 µM,53.5 µM,42.7 µM,34.4 µM,60.2 µM,93.4 µM,51.1 µM,86.8 µM,82.2 µM,54.4 µM,–,–,–,–,–,–,–,–,–
CNC(=O)OCc1c(CO)nc(SC)n1C,–,> 100 µM,> 100 µM,> 100 µM,–,> 100 µM,–,> 100 µM,> 100 µM,> 100 µM,> 100 µM,–,–,–,–,–,–,–,–,–
O=C(/C=C/c1ccccc1)NNC(=O)c1c(Cl)c(Cl)c(Cl)c(Cl)c1-c1nc2ccccc2[nH]1,–,63.4 µM,> 100 µM,47.3 µM,> 100 µM,61 µM,–,55.6 µM,56.5 µM,50.7 µM,64.9 µM,–,–,–,–,–,–,–,–,–
COc1cc2c(cc1O)CC[C@@H]1[C@@H]2CC[C@]2(C)[C@@H](OCCN(C)C)CC[C@@H]12,0.803 µM,4.05 µM,–,–,–,2.09 µM,2.81 µM,1.48 µM,1.66 µM,0.232 µM,0.861 µM,0.624 µM,0.219 µM,0.389 µM,0.1 µM,0.163 µM,0.932 µM,–,–,–
COc1cc2c(ccc3c4cc(OC)c(OC)cc4c[n+](C)c23)cc1O,–,22.1 µM,54.9 µM,> 75 µM,–,> 75 µM,–,> 75 µM,21 µM,> 75 µM,> 75 µM,–,–,–,–,–,–,–,–,–
CCN(CC(=O)O)C(=O)c1cccnc1,–,> 100 µM,> 100 µM,> 100 µM,> 100 µM,> 100 µM,> 100 µM,> 100 µM,> 100 µM,–,> 100 µM,–,–,–,–,–,–,–,–,–
CCC(C)C1=C(OC(C)=O)[N+]2([O-])Oc3ccc(-c4c(OC(C)=O)c(OC(C)=O)c(-c5ccc(OC(C)=O)cc5)c(OC(C)=O)c4OC(C)=O)cc3OC2(C(C)CC)C(=O)N1OC(C)=O (stereo not given),–,> 50 µM,21.8 µM,> 50 µM,> 50 µM,> 50 µM,> 50 µM,> 50 µM,–,19.7 µM,> 50 µM,–,–,–,–,–,–,–,–,–
O=C(C[n+]1ccc2ccccc2c1)c1ccc2ccc3ccccc3c2c1,–,14.7 µM,16.4 µM,16.3 µM,14.8 µM,5.85 µM,8.74 µM,17.6 µM,21.1 µM,–,32.7 µM,–,–,–,–,–,–,–,–,–
CC1=CC(=O)c2ccccc2C1=O,–,25 µM,30.3 µM,26.9 µM,13.1 µM,24.5 µM,34.1 µM,14 µM,29.8 µM,5.94 µM,30.2 µM,–,–,–,–,–,–,–,–,–
C[C@H](CCC(=O)O)[C@H]1CC[C@@]2(C)[C@@H]3C(=O)C[C@H]4C(C)(C)[C@@H](O)CC[C@]4(C)[C@H]3C(=O)C[C@]12C,–,> 100 µM,> 100 µM,> 100 µM,> 100 µM,> 100 µM,> 100 µM,30.2 µM,> 100 µM,> 100 µM,> 100 µM,–,–,–,–,–,–,–,–,–
CCOC(=O)C1=NN(c2ccc(C)cc2)C2=CC(C)=NN(C)C(=S)N21,–,> 100 µM,> 100 µM,30.1 µM,> 100 µM,> 100 µM,> 100 µM,> 100 µM,–,> 100 µM,> 100 µM,–,–,–,–,–,–,–,–,–
O=C(/C=C/c1ccc(O)c(-c2cc(C(=O)/C=C/c3ccc(O)cc3)c(O)cc2O)c1)c1ccc(O)cc1O,–,> 50 µM,> 50 µM,> 50 µM,> 50 µM,> 50 µM,> 50 µM,> 50 µM,> 50 µM,> 50 µM,> 50 µM,–,–,–,–,–,–,–,–,–
CC1CC[C@@]2(OC1)OC1C[C@H]3[C@@H]4CC=C5CC(OC6OC(CO)C(OC7OC(CO)C(O)C(OC8OCC(O)C(O)C8O)C7OC7OC(CO)C(O)C(O)C7O)C(O)C6O)CCC5(C)[C@H]4CCC3(C)C1[C@@H]2C (stereo not given in full),–,8.27 µM,21.2 µM,9.43 µM,10.6 µM,11.8 µM,20.2 µM,–,9.32 µM,9.35 µM,12.9 µM,–,–,–,–,–,–,–,–,–
Cc1c(N2C(=O)CS(=O)(=O)C2c2cccc(Oc3ccccc3)c2)c(=O)n(-c2ccccc2)n1C (stereo not given),–,> 100 µM,> 100 µM,79.3 µM,> 100 µM,> 100 µM,47.7 µM,> 100 µM,> 100 µM,53.4 µM,> 100 µM,–,–,–,–,–,–,–,–,–

SMILES,GI50 (SN12C renal),TGI (SN12C renal),TGI (SF-295 CNS),TGI (RXF 393 renal),TGI (ACHN renal),TGI (NCI-H460 lung),TGI (TK-10 renal),TGI (UO-31 renal),TGI (HOP-62 NSCLC),TGI (HL-60(TB) leukemia),TGI (NCI/ADR-RES ovarian),GI50 (UO-31 renal),GI50 (NCI-H460 lung),GI50 (HOP-62 NSCLC),GI50 (HL-60(TB) leukemia),GI50 (NCI/ADR-RES ovarian),GI50 (TK-10 renal),GI50 (SF-295 CNS),GI50 (ACHN renal),GI50 (RXF 393 renal)
COc1ccc2c(c1)[nH]c1c(/C=C/c3ccccc3)nccc12,–,30.2 µM,24.2 µM,38 µM,28.4 µM,33.7 µM,39.7 µM,24 µM,41.4 µM,54 µM,37.9 µM,–,–,–,–,–,–,–,–,–
CCCCCCCCC/C=C/C=C/C(=O)NCC(=O)NC1C(O)C(O)C(Nc2ncnc3nc[nH]c23)OC1C(O)CO (stereo not given),–,0.913 µM,1.08 µM and 8.98 µM,0.0163 µM,–,1.23 µM and 0.321 µM,1.71 µM,0.0177 µM and 0.0219 µM,–,–,–,0.00344 µM,0.00278 µM,0.0011 µM,–,–,–,0.0441 µM,0.0144 µM,–
O=C(c1cccs1)N(C(=S)OC12CC3CC(CC(C3)C1)C2)c1ccccc1,–,89.8 µM,> 100 µM,> 100 µM,> 100 µM,> 100 µM,> 100 µM,70.3 µM,> 100 µM,72.5 µM,> 100 µM,–,–,–,–,–,–,–,–,–
COc1cccc2c1Cc1cc(-c3ccccc3)[n+](C)n1-2,–,61.7 µM,> 100 µM,73.6 µM,79.9 µM,40.4 µM,> 100 µM,90.8 µM,> 100 µM,44.9 µM,> 100 µM,–,–,–,–,–,–,–,–,–
NCCSC(c1ccccc1)c1ccccc1,–,> 100 µM,35.7 µM,39.8 µM,> 100 µM,29.3 µM,31.8 µM,33.2 µM,33.7 µM,0.793 µM,> 100 µM,–,–,–,–,–,–,–,–,–
Nc1nc(SCCc2ccccc2)nc2nc3c(c(-c4ccccc4)c12)CCCC3,–,> 100 µM,> 100 µM,81.1 µM,> 100 µM,> 100 µM,> 100 µM,> 100 µM,> 100 µM,> 100 µM,> 100 µM,–,–,–,–,–,–,–,–,–
Clc1cc2c(cc1Cl)CC(NCCN1CCCC1)CC2 (stereo not given),–,31.4 µM,29.8 µM,–,31.8 µM,31.2 µM,27.6 µM,23.6 µM,30.7 µM,37.6 µM,27.8 µM,–,–,–,–,–,–,–,–,–
NC(=O)c1c(NC(=O)c2ccccn2)sc2c1CCC(=O)C2,–,–,–,> 100 µM,> 100 µM,> 100 µM,> 100 µM,6.63 µM,> 100 µM,–,–,1.82 µM,> 100 µM,> 100 µM,–,–,5 µM,–,2.62 µM,3.53 µM
CCOC(=O)C(NC(=O)c1ccco1)(Nc1nc2ccc(OCC)cc2s1)C(F)(F)F (stereo not given),–,> 100 µM,> 100 µM,30.9 µM,82.3 µM,> 100 µM,> 100 µM,> 100 µM,–,> 100 µM,> 100 µM,–,–,–,–,–,–,–,–,–
COc1ccc(C(=O)/C=C/c2cccc([N+](=O)[O-])c2)c(OC)c1,1.18 µM,2.99 µM,> 50 µM,2.36 µM,–,3.31 µM,> 50 µM,–,> 50 µM,–,> 50 µM,–,1.27 µM,1.8 µM,–,1.53 µM,1.59 µM,2.39 µM,–,1.13 µM
O=C(O)C1C2CCC(O2)C1C(=O)Nc1cccc2cccnc12 (stereo not given),–,> 100 µM,> 100 µM,> 100 µM,> 100 µM,> 100 µM,> 100 µM,> 100 µM,> 100 µM,–,> 100 µM,–,–,–,–,–,–,–,–,–
CC(=O)C1=C(C)N(c2ccc(C)cc2)C2(O)C=CC(=O)C3C(=O)N(c4ccccc4)C(=O)C132 (stereo not given),–,34.2 µM,43.7 µM,54.3 µM,40.4 µM,> 100 µM,40.3 µM,24.6 µM,> 100 µM,18.4 µM,> 100 µM,–,–,–,–,–,–,–,–,–
CCC1CN(C(=O)c2ccccc2)C(Cc2c[nH]c3ccccc23)C(=O)C1CC(=O)OC (stereo not given),–,> 100 µM,> 100 µM,> 100 µM,> 100 µM,> 100 µM,> 100 µM,> 100 µM,> 100 µM,> 100 µM,> 100 µM,–,–,–,–,–,–,–,–,–
COc1nc(C#CC2(O)CCCCC2)nc(OC)n1,–,26.6 µM,60.4 µM,27 µM,21.9 µM,78.6 µM,–,15.1 µM,91 µM,16.3 µM,68.9 µM,–,–,–,–,–,–,–,–,–
CCn1c(-c2ccc(N=NNc3ccc(-c4n[nH]c(=S)n4CC)cc3)cc2)n[nH]c1=S,–,> 100 µM,7.1 µM,11.8 µM,6.1 µM,–,> 100 µM,5.62 µM,8.03 µM,–,> 100 µM,–,–,–,–,–,–,–,–,–
O=c1[nH]nc(NNc2ccccc2)c2nnn(C3CCCCC3)c12,–,> 100 µM,> 100 µM,–,> 100 µM,> 100 µM,> 100 µM,> 100 µM,> 100 µM,> 100 µM,> 100 µM,–,–,–,–,–,–,–,–,–
